Test results: ChEMBL document CHEMBL2380302, “Synthesis of 3-O-propargylated betulinic acid and its 1,2,3-triazoles as potential apoptotic agents” (Eur J Med Chem, 2013)

Legend:
HCT-15 [1] = experiment: Cytotoxicity against human HCT15 cells at 10 uM after 48 hrs by SRB assay; format: functional; conditions: HCT-15, 48 h, read-out: GI
SF-295 [2] = experiment: Cytotoxicity against human SF295 cells at 10 uM after 48 hrs by SRB assay; format: functional; conditions: SF-295, 48 h, read-out: GI
A549 [3] = experiment: Cytotoxicity against human A549 cells at 10 uM after 48 hrs by SRB assay; format: functional; conditions: A549, 48 h, read-out: GI
MCF7 [4] = experiment: Cytotoxicity against human MCF7 cells at 10 uM after 48 hrs by SRB assay; format: functional; conditions: MCF7, 48 h, read-out: GI
HEp-2 [5] = experiment: Cytotoxicity against human Hep2 cells at 10 uM after 48 hrs by SRB assay; format: functional; conditions: HEp-2, 48 h, read-out: GI
PC-3 [6] = experiment: Cytotoxicity against human PC3 cells at 10 uM after 48 hrs by SRB assay; format: functional; conditions: PC-3, 48 h, read-out: GI
DU-145 [7] = experiment: Cytotoxicity against human DU145 cells at 10 uM after 48 hrs by SRB assay; format: functional; conditions: DU-145, 48 h, read-out: GI
HL-60 [8] = experiment: Cytotoxicity against human HL60 cells at 10 uM after 48 hrs by SRB assay; format: functional; conditions: HL-60, 48 h, read-out: GI
THP-1 [9] = experiment: Cytotoxicity against human THP1 cells at 10 uM after 48 hrs by SRB assay; format: functional; conditions: THP-1, 48 h, read-out: GI
HCT-15 [10] = experiment: Cytotoxicity against human HCT15 cells at 30 uM after 48 hrs by SRB assay; format: functional; conditions: HCT-15, 48 h, read-out: GI
SF-295 [11] = experiment: Cytotoxicity against human SF295 cells at 30 uM after 48 hrs by SRB assay; format: functional; conditions: SF-295, 48 h, read-out: GI
A549 [12] = experiment: Cytotoxicity against human A549 cells at 30 uM after 48 hrs by SRB assay; format: functional; conditions: A549, 48 h, read-out: GI
MCF7 [13] = experiment: Cytotoxicity against human MCF7 cells at 30 uM after 48 hrs by SRB assay; format: functional; conditions: MCF7, 48 h, read-out: GI
HEp-2 [14] = experiment: Cytotoxicity against human Hep2 cells at 30 uM after 48 hrs by SRB assay; format: functional; conditions: HEp-2, 48 h, read-out: GI
PC-3 [15] = experiment: Cytotoxicity against human PC3 cells at 30 uM after 48 hrs by SRB assay; format: functional; conditions: PC-3, 48 h, read-out: GI
DU-145 [16] = experiment: Cytotoxicity against human DU145 cells at 30 uM after 48 hrs by SRB assay; format: functional; conditions: DU-145, 48 h, read-out: GI
HL-60 [17] = experiment: Cytotoxicity against human HL60 cells at 30 uM after 48 hrs by SRB assay; format: functional; conditions: HL-60, 48 h, read-out: GI
THP-1 [18] = experiment: Cytotoxicity against human THP1 cells at 30 uM after 48 hrs by SRB assay; format: functional; conditions: THP-1, 48 h, read-out: GI
HCT-15 [19] = experiment: Cytotoxicity against human HCT15 cells at 50 uM after 48 hrs by SRB assay; format: functional; conditions: HCT-15, 48 h, read-out: GI
SF-295 [20] = experiment: Cytotoxicity against human SF295 cells at 50 uM after 48 hrs by SRB assay; format: functional; conditions: SF-295, 48 h, read-out: GI
A549 [21] = experiment: Cytotoxicity against human A549 cells at 50 uM after 48 hrs by SRB assay; format: functional; conditions: A549, 48 h, read-out: GI
MCF7 [22] = experiment: Cytotoxicity against human MCF7 cells at 50 uM after 48 hrs by SRB assay; format: functional; conditions: MCF7, 48 h, read-out: GI
HEp-2 [23] = experiment: Cytotoxicity against human Hep2 cells at 50 uM after 48 hrs by SRB assay; format: functional; conditions: HEp-2, 48 h, read-out: GI
PC-3 [24] = experiment: Cytotoxicity against human PC3 cells at 50 uM after 48 hrs by SRB assay; format: functional; conditions: PC-3, 48 h, read-out: GI
HL-60 [25] = experiment: Cytotoxicity against human HL60 cells at 50 uM after 48 hrs by SRB assay; format: functional; conditions: HL-60, 48 h, read-out: GI
DU-145 [26] = experiment: Cytotoxicity against human DU145 cells at 50 uM after 48 hrs by SRB assay; format: functional; conditions: DU-145, 48 h, read-out: GI
THP-1 [27] = experiment: Cytotoxicity against human THP1 cells at 50 uM after 48 hrs by SRB assay; format: functional; conditions: THP-1, 48 h, read-out: GI
HCT-15 [28] = experiment: Cytotoxicity against human HCT15 cells after 48 hrs by SRB assay; format: functional, cell-based; conditions: HCT-15, 48 h
A549 [29] = experiment: Cytotoxicity against human A549 cells after 48 hrs by SRB assay; format: functional, cell-based; conditions: A549, 48 h
SF-295 [30] = experiment: Cytotoxicity against human SF295 cells after 48 hrs by SRB assay; format: functional, cell-based; conditions: SF-295, 48 h
MCF7 [31] = experiment: Cytotoxicity against human MCF7 cells after 48 hrs by SRB assay; format: functional, cell-based; conditions: MCF7, 48 h
HEp-2 [32] = experiment: Cytotoxicity against human Hep2 cells after 48 hrs by SRB assay; format: functional, cell-based; conditions: HEp-2, 48 h
PC-3 [33] = experiment: Cytotoxicity against human PC3 cells after 48 hrs by SRB assay; format: functional, cell-based; conditions: PC-3, 48 h
DU-145 [34] = experiment: Cytotoxicity against human DU145 cells after 48 hrs by SRB assay; format: functional, cell-based; conditions: DU-145, 48 h
HL-60 [35] = experiment: Cytotoxicity against human HL60 cells after 48 hrs by SRB assay; format: functional, cell-based; conditions: HL-60, 48 h
THP-1 [36] = experiment: Cytotoxicity against human THP1 cells after 48 hrs by SRB assay; format: functional, cell-based; conditions: THP-1, 48 h

Compound	inhibition of growth at 10 µM (HCT-15 [1]) [%]	inhibition of growth at 10 µM (SF-295 [2]) [%]	inhibition of growth at 10 µM (A549 [3]) [%]	inhibition of growth at 10 µM (MCF7 [4]) [%]	inhibition of growth at 10 µM (HEp-2 [5]) [%]	inhibition of growth at 10 µM (PC-3 [6]) [%]	inhibition of growth at 10 µM (DU-145 [7]) [%]	inhibition of growth at 10 µM (HL-60 [8]) [%]	inhibition of growth at 10 µM (THP-1 [9]) [%]	inhibition of growth at 30 µM (HCT-15 [10]) [%]	inhibition of growth at 30 µM (SF-295 [11]) [%]	inhibition of growth at 30 µM (A549 [12]) [%]	inhibition of growth at 30 µM (MCF7 [13]) [%]	inhibition of growth at 30 µM (HEp-2 [14]) [%]	inhibition of growth at 30 µM (PC-3 [15]) [%]	inhibition of growth at 30 µM (DU-145 [16]) [%]	inhibition of growth at 30 µM (HL-60 [17]) [%]	inhibition of growth at 30 µM (THP-1 [18]) [%]	inhibition of growth at 50 µM (HCT-15 [19]) [%]	inhibition of growth at 50 µM (SF-295 [20]) [%]	other results
C=C(C)[C@@H]1CC[C@]2(C(=O)O)CC[C@]3(C)[C@H](CC[C@@H]4[C@@]5(C)CC[C@H](O)C(C)(C)[C@@H]5CC[C@]43C)[C@@H]12 [BETULINIC ACID]	45	11	20	7	41	8	12	35	30	80	88	48	36	66	29	70	73	69	94	99	inhibition of growth at 50 µM (A549 [21]): 74%; inhibition of growth at 50 µM (MCF7 [22]): 80%; inhibition of growth at 50 µM (HEp-2 [23]): 78%; inhibition of growth at 50 µM (PC-3 [24]): 94%; inhibition of growth at 50 µM (HL-60 [25]): 98%; inhibition of growth at 50 µM (DU-145 [26]): 84%; inhibition of growth at 50 µM (THP-1 [27]): 99%; IC50 (HCT-15 [28]): 12 µM; IC50 (A549 [29]): 31 µM; IC50 (SF-295 [30]): 22 µM; IC50 (MCF7 [31]): 37 µM; IC50 (HEp-2 [32]): 16 µM; IC50 (PC-3 [33]): 37 µM; IC50 (DU-145 [34]): 22 µM; IC50 (HL-60 [35]): 17 µM; IC50 (THP-1 [36]): 20 µM
C=C(C)[C@@H]1CC[C@]2(C(=O)O)CC[C@]3(C)[C@H](CC[C@@H]4[C@@]5(C)CC[C@H](OCc6cn(-c7cccc(OC)c7)nn6)C(C)(C)[C@@H]5CC[C@]43C)[C@@H]12	23	15	34	46	30	4	17	20	17	53	48	38	59	56	10	18	45	41	84	55	inhibition of growth at 50 µM (A549 [21]): 45%; inhibition of growth at 50 µM (MCF7 [22]): 75%; inhibition of growth at 50 µM (HEp-2 [23]): 57%; inhibition of growth at 50 µM (PC-3 [24]): 28%; inhibition of growth at 50 µM (HL-60 [25]): 60%; inhibition of growth at 50 µM (DU-145 [26]): 30%; inhibition of growth at 50 µM (THP-1 [27]): 54%; IC50 (HCT-15 [28]): 26 µM; IC50 (A549 [29]): > 50 µM; IC50 (SF-295 [30]): 32 µM; IC50 (MCF7 [31]): 12 µM; IC50 (HEp-2 [32]): 29 µM; IC50 (PC-3 [33]): > 50 µM; IC50 (DU-145 [34]): > 50 µM; IC50 (HL-60 [35]): 37 µM; IC50 (THP-1 [36]): 47 µM
C=C(C)[C@@H]1CC[C@]2(C(=O)O)CC[C@]3(C)[C@H](CC[C@@H]4[C@@]5(C)CC[C@H](OCc6cn(-c7ccccc7CO)nn6)C(C)(C)[C@@H]5CC[C@]43C)[C@@H]12	50	35	54	50	45	10	43	50	45	80	72	55	72	61	28	55	69	65	82	77	inhibition of growth at 50 µM (A549 [21]): 57%; inhibition of growth at 50 µM (MCF7 [22]): 80%; inhibition of growth at 50 µM (HEp-2 [23]): 64%; inhibition of growth at 50 µM (PC-3 [24]): 52%; inhibition of growth at 50 µM (HL-60 [25]): 80%; inhibition of growth at 50 µM (DU-145 [26]): 65%; inhibition of growth at 50 µM (THP-1 [27]): 78%; IC50 (HCT-15 [28]): 10 µM; IC50 (A549 [29]): 14 µM; IC50 (SF-295 [30]): 17 µM; IC50 (MCF7 [31]): 10 µM; IC50 (HEp-2 [32]): 14 µM; IC50 (PC-3 [33]): 49 µM; IC50 (DU-145 [34]): 16 µM; IC50 (HL-60 [35]): 10 µM; IC50 (THP-1 [36]): 15 µM
C=C(C)[C@@H]1CC[C@]2(C(=O)O)CC[C@]3(C)[C@H](CC[C@@H]4[C@@]5(C)CC[C@H](OCc6cn(-c7ccc(C(=O)c8ccccc8)cc7)nn6)C(C)(C)[C@@H]5CC[C@]43C)[C@@H]12	43	8	32	29	25	6	6	6	3	41	19	37	25	26	4	9	30	24	46	12	inhibition of growth at 50 µM (A549 [21]): 58%; inhibition of growth at 50 µM (MCF7 [22]): 44%; inhibition of growth at 50 µM (HEp-2 [23]): 25%; inhibition of growth at 50 µM (PC-3 [24]): 3%; inhibition of growth at 50 µM (HL-60 [25]): 94%; inhibition of growth at 50 µM (DU-145 [26]): 50%; inhibition of growth at 50 µM (THP-1 [27]): 91%; IC50 (HCT-15 [28]): > 50 µM; IC50 (A549 [29]): 36 µM; IC50 (SF-295 [30]): > 50 µM; IC50 (MCF7 [31]): > 50 µM; IC50 (HEp-2 [32]): > 50 µM; IC50 (PC-3 [33]): > 50 µM; IC50 (DU-145 [34]): 50 µM; IC50 (HL-60 [35]): 40 µM; IC50 (THP-1 [36]): 44 µM
C=C(C)[C@@H]1CC[C@]2(C(=O)O)CC[C@]3(C)[C@H](CC[C@@H]4[C@@]5(C)CC[C@H](OCc6cn(-c7cccc(CO)c7)nn6)C(C)(C)[C@@H]5CC[C@]43C)[C@@H]12	11	27	43	36	51	4	43	53	50	70	37	45	71	74	29	52	93	91	71	47	inhibition of growth at 50 µM (A549 [21]): 67%; inhibition of growth at 50 µM (MCF7 [22]): 75%; inhibition of growth at 50 µM (HEp-2 [23]): 78%; inhibition of growth at 50 µM (PC-3 [24]): 49%; inhibition of growth at 50 µM (HL-60 [25]): 95%; inhibition of growth at 50 µM (DU-145 [26]): 65%; inhibition of growth at 50 µM (THP-1 [27]): 93%; IC50 (HCT-15 [28]): 25 µM; IC50 (A549 [29]): 32 µM; IC50 (SF-295 [30]): 53 µM; IC50 (MCF7 [31]): 17 µM; IC50 (HEp-2 [32]): 8 µM; IC50 (PC-3 [33]): 50 µM; IC50 (DU-145 [34]): 23 µM; IC50 (HL-60 [35]): 7 µM; IC50 (THP-1 [36]): 10 µM
